In ChEMBL document CHEMBL1121776, “Folate antagonists. 18. Synthesis and antimalarial effects of N6-(arylmethyl)-N6-methyl-2,4,6-pteridinetriamines and related N6,N6-disubstituted 2,4,6-pteridinetriamines” (1981):
Converted amounts (≈) assume the structure as drawn.

Columns and labels:
Format in all cases: functional
[1] = system: Escherichia coli; test: In vitro antibacterial effect against Escherichia coli Vogel by using gradient plate test
[2] = system: Enterococcus faecalis; test: In vitro antibacterial effect against Streptococcus faecalis MGH-2
[3] = system: Staphylococcus aureus; test: In vitro antibacterial effect against Staphylococcus aureus UC-76 by using gradient plate test
[4] = system: Mus musculus; test: Parenteral antimalarial effect against Plasmodium berghei in mice (Mus musculus) at a dose of 640 subcutaneously mg/kg
[5] = system: Mus musculus; test: Parenteral antimalarial effect against Plasmodium berghei in mice (Mus musculus) at a dose of 160 subcutaneously mg/kg
[6] = system: Mus musculus; test: Parenteral antimalarial effect against Plasmodium berghei in mice (Mus musculus) at a dose of 80 mg/kg subcutaneously; settings: route subcutaneous
[7] = system: Mycobacterium tuberculosis; test: In vitro antibacterial effect against Mycobacterium tuberculosis H37Rv by using gradient plate test
[8] = system: Shigella sonnei; test: In vitro antibacterial effect against Shigella sonnei C-10 by using gradient plate test
[9] = system: Mus musculus; test: Parenteral antimalarial effect against Plasmodium berghei in mice (Mus musculus) at a dose of 40 mg/kg subcutaneously; settings: route subcutaneous
[10] = system: Staphylococcus aureus; test: In vitro antibacterial effect against Staphylococcus aureus S18713 by using gradient plate test
[11] = system: Mus musculus; test: Parenteral antimalarial effect against Plasmodium berghei in mice (Mus musculus) at a dose of 20sc mg/kg
[12] = system: Pseudomonas aeruginosa; test: In vitro antibacterial effect against Pseudomonas aeruginosa 28 by using gradient plate test
[13] = system: Mus musculus; test: Parenteral antimalarial effect against Plasmodium berghei in mice (Mus musculus) at a dose of 320 subcutaneous mg/kg
[14] = system: Mus musculus; test: Parenteral antimalarial effect against Plasmodium berghei in mice (Mus musculus) at a dose of 10sc mg/kg
[15] = system: Mus musculus; test: Parenteral antimalarial effect against Plasmodium berghei in mice (Mus musculus) at a dose of 20 mg/kg subcutaneously; Number of mice (Mus musculus) surviving at 60 days post infection and cured 2/5; settings: route subcutaneous
[16] = system: Mus musculus; test: Parenteral antimalarial effect against Plasmodium berghei in mice (Mus musculus) at a dose of 160 mg/kg subcutaneously; Number of mice (Mus musculus) surviving at 60 days post infection and cured 10/10; settings: route subcutaneous
[17] = system: Mus musculus; test: Parenteral antimalarial effect against Plasmodium berghei in mice (Mus musculus) at a dose of 320 subcutaneous mg/kg; Number of mice (Mus musculus) surviving at 60 days post infection and cured 5/5
[18] = system: Mus musculus; test: Parenteral antimalarial effect against Plasmodium berghei in mice (Mus musculus) at a dose of 640 mg/kg subcutaneously; Number of mice (Mus musculus) surviving at 60 days post infection and cured 10/10; settings: route subcutaneous
[19] = system: Mus musculus; test: Parenteral antimalarial effect against Plasmodium berghei in mice (Mus musculus) at a dose of 80 mg/kg subcutaneously; Number of mice (Mus musculus) surviving at 60 days post infection and cured 10/10; settings: route subcutaneous
[20] = system: Mus musculus; test: Parenteral antimalarial effect against Plasmodium berghei in mice (Mus musculus) at a dose of 20 mg/kg subcutaneously; Number of mice (Mus musculus) surviving at 60 days post infection and cured 8/15; settings: route subcutaneous
[21] = system: Mus musculus; test: Parenteral antimalarial effect against Plasmodium berghei in mice (Mus musculus) at a dose of 160 mg/kg subcutaneously 10/10; settings: route subcutaneous
[22] = system: Escherichia coli; test: In vitro antibacterial effect against E. c. Vogel by using gradient plate test
[23] = system: Mus musculus; test: Parenteral antimalarial effect against Plasmodium berghei in mice (Mus musculus) at a dose of 320 mg/kg subcutaneously; 5/5; settings: route subcutaneous
[24] = system: Mus musculus; test: Parenteral antimalarial effect against Plasmodium berghei in mice (Mus musculus) at a dose of 160 mg/kg subcutaneously; Number of mice (Mus musculus) surviving at 60 days post infection and cured 8/10; settings: route subcutaneous
[25] = system: Mus musculus; test: Parenteral antimalarial effect against Plasmodium berghei in mice (Mus musculus) at a dose of 40sc mg/kg; Number of mice (Mus musculus) surviving at 60 days post infection and cured 6/10
[26] = system: Enterococcus faecalis; test: In vitro antibacterial effect against S. f MGH-2
[27] = system: Pseudomonas aeruginosa; test: In vitro antibacterial effect against P.a 28 by using gradient plate test
[28] = system: Staphylococcus aureus; test: In vitro antibacterial effect against S. a. UC-76 by using gradient plate test
[29] = system: Staphylococcus aureus; test: In vitro antibacterial effect against S. a. S18713 by using gradient plate test
[30] = system: Shigella sonnei; test: In vitro antibacterial effect against S. s C-10 by using gradient plate test

| Structure (SMILES) | MIC [1] | MIC [2] | MIC [3] | MST [4] | MST [5] | MST [6] | MIC [7] | MIC [8] | MST [9] | MIC [10] | MST [11] | MIC [12] | MST [13] | MST [14] | MST [18] | further results |
| --- | --- | --- | --- | --- | --- | --- | --- | --- | --- | --- | --- | --- | --- | --- | --- | --- |
| CN(CCc1ccccc1)c1cnc2nc(N)nc(N)c2n1 | > 25 µg/mL | < 0.25 µg/mL | < 0.25 µg/mL | 3.9 days | 0.7 days | 0.1 days | > 25 µg/mL | > 25 µg/mL | 0.1 days | < 0.25 µg/mL | 0.1 days | > 25 µg/mL | 1.7 days | – | – | – |
| Nc1nc(N)c2nc(N3CCC(c4ccccc4)CC3)cnc2n1 | > 25 µg/mL | < 0.25 µg/mL | > 0.25 µg/mL | 0.1 days | 0.1 days | – | 10 µg/mL (≈ 31.1 µM) | > 25 µg/mL | 0.1 days | > 0.25 µg/mL | – | > 25 µg/mL | – | – | – | – |
| CN(Cc1ccc2ccccc2c1)c1cnc2nc(N)nc(N)c2n1 | > 25 µg/mL | < 0.25 µg/mL | < 0.25 µg/mL | – | – | – | > 25 µg/mL | > 25 µg/mL | – | < 0.25 µg/mL | – | > 25 µg/mL | – | 5.9 days | 10 days | MST [15]: 2 days; MST [16]: 10 days; MST [17]: 5 days |
| CN(Cc1ccc(Cl)c(Cl)c1)c1ccc2nc(N)nc(N)c2c1 | – | – | – | – | – | – | – | – | – | – | – | – | – | 8.7 days | – | MST [16]: 10 days; MST [19]: 10 days; MST [20]: 8 days |
| CN(Cc1ccc(Cl)c(Cl)c1)c1cnc2nc(N)nc(N)c2n1 | – | < 0.25 µg/mL | < 0.25 µg/mL | – | – | – | 10 µg/mL (≈ 28.6 µM) | > 25 µg/mL | – | < 0.25 µg/mL | 10.6 days | > 25 µg/mL | – | 2.5 days | 10 days | MST [21]: 10 days; MIC [22]: > 25 µg/mL; MST [23]: 5 days |
| CC1(C)N=C(N)N=C(N)N1c1ccc(Cl)cc1.Cl [CHLORCYCLOGUANIL HYDROCHLORIDE] | – | – | – | 5 days | 5 days | 2 days | – | – | 1 days | – | 7.9 days | – | 3 days | – | – | – |
| CN(Cc1ccc2c(c1)Cc1ccccc1-2)c1cnc2nc(N)nc(N)c2n1 | > 25 µg/mL | < 0.25 µg/mL | < 0.25 µg/mL | – | 5 days | 2 days | 5 µg/mL (≈ 13.5 µM) | > 25 µg/mL | 8.1 days | < 0.25 µg/mL | 6.3 days | > 25 µg/mL | 5 days | 3.5 days | – | – |
| CN(Cc1ccc(F)cc1)c1cnc2nc(N)nc(N)c2n1 | – | < 0.25 µg/mL | < 0.25 µg/mL | – | – | – | 2.5 µg/mL (≈ 8.35 µM) | > 25 µg/mL | – | < 0.25 µg/mL | 8.5 days | > 25 µg/mL | – | – | 10 days | MST [24]: 8 days; MIC [22]: > 25 µg/mL |
| COc1cc(CN(C)c2cnc3nc(N)nc(N)c3n2)cc(OC)c1OC | > 25 µg/mL | < 0.25 µg/mL | < 0.25 µg/mL | – | – | – | > 25 µg/mL | > 25 µg/mL | – | < 0.25 µg/mL | 5.5 days | > 25 µg/mL | – | – | 10 days | MST [25]: 6 days; MST [24]: 8 days |
| CN(Cc1cc2ccccc2c2ccccc12)c1cnc2nc(N)nc(N)c2n1 | – | – | – | – | – | – | – | – | – | – | – | – | – | – | – | MIC [26]: < 0.25 µg/mL; MIC [27]: > 25 µg/mL; MIC [28]: < 0.25 µg/mL; MIC [22]: > 25 µg/mL; MIC [29]: < 0.25 µg/mL; MIC [30]: > 25 µg/mL |
| COc1ccc(CN(C)c2cnc3nc(N)nc(N)c3n2)c2ccccc12 | > 25 µg/mL | < 0.25 µg/mL | < 0.25 µg/mL | 5 days | 5 days | 5 days | 2.5 µg/mL (≈ 6.92 µM) | > 25 µg/mL | 5 days | < 0.25 µg/mL | 6.5 days | > 25 µg/mL | 5 days | – | – | – |
